Source: PubChem BioAssay (NCI)
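Method: 48-hour compound exposure of cells in 96-well plates, five concentrations, linear interpolation of endpoints. Here, GI50 denotes the concentration required for 50% inhibition of growth. TGI denotes the concentration required for complete inhibition of growth.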

Assays:
Assay in all cases: NCI tumour cell line growth inhibition, 48 h
[1] = tested on: BT-549 breast
[2] = tested on: EKVX NSCLC
[3] = tested on: IGROV1 ovarian
[4] = tested on: NCI-H23 lung
[5] = tested on: OVCAR-4 ovarian
[6] = tested on: SF-268 CNS
[7] = tested on: SN12C renal
[8] = tested on: SNB-19 CNS
[9] = tested on: UACC-257 melanoma
[10] = tested on: HS 578T breast

Row | SMILES | TGI [1] [µM] | TGI [2] [µM] | TGI [3] [µM] | TGI [4] [µM] | TGI [5] [µM] | TGI [6] [µM] | TGI [7] [µM] | TGI [8] [µM] | TGI [9] [µM] | TGI [10] [µM] | GI50 [1] [µM] | GI50 [2] [µM] | GI50 [10] [µM] | GI50 [3] [µM] | GI50 [4] [µM] | GI50 [5] [µM] | GI50 [6] [µM] | GI50 [8] [µM] | GI50 [9] [µM]
1 | CC(C)(C)C(=O)Nc1c(C=O)ccc2[nH]cnc12 | > 100 | > 100 | > 100 | > 100 | > 100 | > 100 | > 100 | > 100 | > 100 |  |  |  |  |  |  |  |  |  | 
2 | N#Cc1c(-c2ccc([N+](=O)[O-])cc2)c(C#N)c(=O)n(NS(=O)(=O)c2ccccc2)c1S | 39.2 | > 100 | 48.3 |  | > 100 | > 100 | 34.9 | > 100 | > 100 | 58.5 |  |  |  |  |  |  |  |  | 
3 | C=CCC(O[Si](C)(C)C(C)(C)C)c1cc(O[Si](C)(C)C(C)(C)C)ccc1OC (stereo not given) |  | > 100 | > 100 | > 100 | > 100 | > 100 | > 100 | > 100 | > 100 |  |  |  |  |  |  |  |  |  | 
4 | C/C(=C1\N=C(c2ccccc2)OC1=O)c1ccccc1 |  | > 100 | > 100 | > 100 | > 100 | > 100 |  | > 100 | > 100 | > 100 |  |  |  |  |  |  |  |  | 
5 | Cc1nnc2n1N=C(c1ccccc1)C(c1ccccc1)S2 (stereo not given) |  | > 100 | > 100 | 64 | > 100 | > 100 | > 100 | > 100 | > 100 |  |  |  |  |  |  |  |  |  | 
6 | NC(=O)CCC(N=c1c2ccccc2n(O)c2ccccc12)C(=O)O (stereo not given) |  | > 100 | > 100 | > 100 | > 100 | > 100 | > 100 | > 100 |  |  |  |  |  |  |  |  |  |  | 
7 | COC(=O)c1c2c(cc3c1CC1(Cc4cc5c(c(C=O)c4C1)CCC5)C3)CCC2 (stereo not given) |  | > 100 | > 100 | > 100 | > 100 | > 100 |  | > 100 | 71.3 | > 100 |  |  |  |  |  |  |  |  | 
8 | COP(=O)(OC)OCN(C)CC/C=C(\C)CC/C=C(\C)CCC=C(C)C | 30 | 63.3 | 25.8 | 34.7 | > 100 | 30.8 | 32.1 | 25.6 | 19.2 |  |  |  |  |  |  |  |  |  | 
9 | O=C1c2ccccc2-c2nc3ccncc3n21 | > 100 | > 100 | > 100 | > 100 | > 100 | > 100 | > 100 | > 100 | > 100 |  |  |  |  |  |  |  |  |  | 
10 | CC1OC(OC2C(O[C@H]3CC[C@@]4(C)C(=CC[C@H]5[C@@H]6C[C@@H]7O[C@]8(CC[C@@H](C)CO8)[C@@H](C)[C@@H]7[C@@]6(C)CC[C@@H]54)C3)OC(CO)C(O)C2OC2OC(CO)C(O)C(O)C2O)C(O)C(O)C1O (stereo not given in full) | 4.73 | > 21.9 | 3.3 | 3.44 | 3.31 | 3.7 |  | 3.46 | 3.65 | 3.74 |  |  |  |  |  |  |  |  | 
11 | CCOC(=O)c1c(N)sc2c1C(C(=O)OCC)CCCC2 (stereo not given) | > 100 | > 100 | > 100 | > 100 |  |  | > 100 | > 100 | > 100 | > 100 |  |  |  |  |  |  |  |  | 
12 | N[C@@H](CCC(=O)NC(Cc1ccccc1)C(=O)NCP(=O)(O)O)C(=O)O (stereo not given in full) | > 100 | > 100 | > 100 | > 100 |  |  | > 100 | > 100 | > 100 | > 100 |  |  |  |  |  |  |  |  | 
13 | ClC1=NN=C(c2c[nH]c3ccccc23)CC1NCc1ccccc1 (stereo not given) | > 100 | > 100 | > 100 | > 100 |  | > 100 | > 100 | > 100 | > 100 | > 100 |  |  |  |  |  |  |  |  | 
14 | CC1=NN(C(=O)CC(=O)Nc2cccc(C)c2)C(=O)C1N=Nc1ccc(S(=O)(=O)CCOS(=O)(=O)O)cc1 (stereo not given) |  | > 64.6 | 12.4 | 24.6 | 27 | 28 | 5.51 | 22.3 | 23.1 | 15.3 |  |  |  |  |  |  |  |  | 
15 | O=C1c2cc3c(cc2-c2c1c1cc(F)c(F)cc1c(=O)n2CCCn1ccnc1)OCO3 | 49.5 | > 100 | > 100 | 0.29 | > 100 | > 100 |  | > 100 | 0.65 | > 100 | 0.0502 | 0.687 | 1.89 | 0.14 | 0.0204 | 0.27 | < 0.01 | < 0.01 | 0.0969
16 | COC1(CC[C@@H](C)COC2OC(CO)C(O)C(O)C2O)OC2C[C@H]3[C@@H]4CC[C@H]5C[C@@H](OC6OC(CO)C(OC7OC(CO)C(O)C(O)C7O)C(O)C6OC6OC(C)C(O)C(O)C6O)[C@H](O)C[C@]5(C)[C@H]4CC[C@]3(C)C2[C@@H]1C (stereo not given in full) |  | 4.52 | 3.19 |  | 3.96 | 3.99 | 3.42 | 3.55 | 3.5 | 7.25 |  |  |  |  |  |  |  |  | 
17 | CC1=C(CO)C(=O)OC(C(C)C2CCC3C4CC5OC56C(O)C(N5CC5)=CC(=O)C6(C)C4CCC23C)C1 (stereo not given) |  | 25.6 | 14.4 | 7 | 20.6 | 15.5 | 19.5 | 9.56 | 24.4 |  |  |  |  |  |  |  |  |  | 
18 | COc1ccc(-c2ccc(C(=O)C=P(c3ccccc3)(c3ccccc3)c3ccccc3)cc2)cc1 |  | 38.6 |  | 51 | 25 | 71.4 | 28.5 | > 100 | 45.2 | 67.6 |  |  |  |  |  |  |  |  | 
19 | N#Cc1ccccc1NC(=O)C(=O)C(C(=O)c1ccccc1F)C1OC(=O)c2ccccc21 (stereo not given) |  | > 100 | > 100 | > 100 | > 100 | > 100 | > 100 | > 100 | > 100 |  |  |  |  |  |  |  |  |  | 
20 | CCCCCC[C@H]([C@H](C)O)n1cnc2c(N)ncnc21 |  | > 100 | > 100 | > 100 | > 100 | > 100 | > 100 | > 100 | > 100 | > 100 |  |  |  |  |  |  |  |  | 
21 | O=c1c2cc(Br)cc(Br)c2[nH]c(=S)n1-c1ccc(N=Nc2ccc(O)c3cccnc23)cc1 |  | > 100 | 34.5 |  | > 100 | 57.5 | > 100 | 61.2 | > 100 | > 100 |  |  |  |  |  |  |  |  | 
